Results taken from ChEMBL document CHEMBL5465560, “Selectivity Literature for EUbOPEN Chemogenomic Library” (2024).
Each block holds one compound with its values, some of them ahead of it.

Key:
[1] = target: Serine/threonine-protein kinase 35 (Homo sapiens) (UniProt Q8TDR2); experiment: Selectivity interaction (KinomeScan (DiscoverX)) EUB0001049a STK35; details: at 1 µM
[2] = target: aryl hydrocarbon receptor (AHR) (Homo sapiens, UniProt P35869); experiment: Selectivity interaction (Panel of kinases, GPCRs, ion channels and transporters (enzymatic assay)) EUB0000266bCl AHR
Chain of aryl hydrocarbon receptor (AHR) (P35869 whole entry): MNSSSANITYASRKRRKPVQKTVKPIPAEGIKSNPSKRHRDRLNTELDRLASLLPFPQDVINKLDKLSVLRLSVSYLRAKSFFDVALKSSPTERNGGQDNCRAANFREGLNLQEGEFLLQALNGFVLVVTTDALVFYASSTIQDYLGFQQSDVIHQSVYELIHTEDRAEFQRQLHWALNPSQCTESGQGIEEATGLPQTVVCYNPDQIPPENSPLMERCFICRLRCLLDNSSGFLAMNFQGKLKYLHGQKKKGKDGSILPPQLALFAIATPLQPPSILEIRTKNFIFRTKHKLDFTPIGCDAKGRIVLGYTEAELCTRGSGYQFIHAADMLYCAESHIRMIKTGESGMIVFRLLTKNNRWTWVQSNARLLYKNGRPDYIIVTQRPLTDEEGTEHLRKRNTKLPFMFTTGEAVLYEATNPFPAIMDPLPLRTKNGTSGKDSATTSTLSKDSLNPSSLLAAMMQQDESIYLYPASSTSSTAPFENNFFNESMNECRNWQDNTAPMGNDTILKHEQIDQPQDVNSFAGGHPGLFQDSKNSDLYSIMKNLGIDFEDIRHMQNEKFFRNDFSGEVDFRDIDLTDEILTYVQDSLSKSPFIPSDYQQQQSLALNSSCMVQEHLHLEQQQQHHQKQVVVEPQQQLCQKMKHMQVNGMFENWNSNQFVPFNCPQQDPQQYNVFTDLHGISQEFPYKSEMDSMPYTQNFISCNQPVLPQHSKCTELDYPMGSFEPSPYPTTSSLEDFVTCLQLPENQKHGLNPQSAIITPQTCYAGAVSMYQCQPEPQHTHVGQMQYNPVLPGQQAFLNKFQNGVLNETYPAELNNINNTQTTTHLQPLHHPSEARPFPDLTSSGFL

[3] = target: T1, Serine/threonine-protein kinase D1 (Homo sapiens) (UniProt Q15139); experiment: Selectivity interaction (ProQinase) EUB0000171b PRKD1
T1 sequence (whole entry): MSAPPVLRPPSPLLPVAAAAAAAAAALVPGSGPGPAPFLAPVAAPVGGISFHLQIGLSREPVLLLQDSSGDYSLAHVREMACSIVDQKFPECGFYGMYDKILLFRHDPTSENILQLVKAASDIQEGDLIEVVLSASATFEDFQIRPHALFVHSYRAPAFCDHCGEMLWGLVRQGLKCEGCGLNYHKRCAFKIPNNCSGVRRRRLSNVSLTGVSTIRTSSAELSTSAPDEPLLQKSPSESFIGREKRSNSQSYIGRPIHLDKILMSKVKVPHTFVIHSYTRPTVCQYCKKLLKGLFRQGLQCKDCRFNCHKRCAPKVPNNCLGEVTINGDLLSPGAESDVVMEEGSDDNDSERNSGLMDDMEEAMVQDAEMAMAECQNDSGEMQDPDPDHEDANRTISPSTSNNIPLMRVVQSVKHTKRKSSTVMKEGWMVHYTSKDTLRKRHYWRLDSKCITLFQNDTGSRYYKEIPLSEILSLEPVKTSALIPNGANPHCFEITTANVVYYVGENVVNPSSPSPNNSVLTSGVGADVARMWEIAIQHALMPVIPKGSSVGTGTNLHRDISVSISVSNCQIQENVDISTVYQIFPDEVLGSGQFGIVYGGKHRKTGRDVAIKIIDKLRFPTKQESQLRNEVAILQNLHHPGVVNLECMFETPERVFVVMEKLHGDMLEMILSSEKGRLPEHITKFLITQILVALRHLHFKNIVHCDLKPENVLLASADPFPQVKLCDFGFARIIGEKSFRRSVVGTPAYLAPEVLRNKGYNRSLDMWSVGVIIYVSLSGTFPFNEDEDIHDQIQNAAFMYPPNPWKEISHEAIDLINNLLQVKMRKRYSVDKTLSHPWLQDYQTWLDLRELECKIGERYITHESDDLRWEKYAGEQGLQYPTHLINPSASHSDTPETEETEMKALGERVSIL

[4] = target: Tyrosine-protein kinase Srms (Homo sapiens) (UniProt Q9H3Y6); experiment: Selectivity interaction (Kinase panel (Eurofins)) EUB0001564a SRMS; details: at 1 µM
Chain of Tyrosine-protein kinase Srms (Homo sapiens) (Q9H3Y6 whole entry): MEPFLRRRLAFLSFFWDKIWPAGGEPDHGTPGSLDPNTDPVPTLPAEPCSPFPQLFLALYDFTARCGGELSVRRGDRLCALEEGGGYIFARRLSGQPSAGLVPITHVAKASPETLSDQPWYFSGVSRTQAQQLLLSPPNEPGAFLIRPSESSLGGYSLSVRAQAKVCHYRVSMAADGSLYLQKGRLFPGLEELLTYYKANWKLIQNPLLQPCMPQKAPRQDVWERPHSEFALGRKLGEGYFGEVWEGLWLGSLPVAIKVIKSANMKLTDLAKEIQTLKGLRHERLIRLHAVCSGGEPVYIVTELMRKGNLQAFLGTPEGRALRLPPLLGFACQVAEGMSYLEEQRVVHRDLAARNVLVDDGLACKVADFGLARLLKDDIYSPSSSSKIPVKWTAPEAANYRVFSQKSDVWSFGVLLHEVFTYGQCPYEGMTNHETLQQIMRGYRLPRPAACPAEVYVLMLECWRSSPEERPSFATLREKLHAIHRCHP

[5] = target: Tyrosine-protein kinase BTK (Homo sapiens, UniProt Q06187); experiment: Selectivity interaction (Upstate Kinase Profiler service (Millipore)) EUB0000056c BTK; details: at 1 µM
Chain of Tyrosine-protein kinase BTK (Q06187 whole entry): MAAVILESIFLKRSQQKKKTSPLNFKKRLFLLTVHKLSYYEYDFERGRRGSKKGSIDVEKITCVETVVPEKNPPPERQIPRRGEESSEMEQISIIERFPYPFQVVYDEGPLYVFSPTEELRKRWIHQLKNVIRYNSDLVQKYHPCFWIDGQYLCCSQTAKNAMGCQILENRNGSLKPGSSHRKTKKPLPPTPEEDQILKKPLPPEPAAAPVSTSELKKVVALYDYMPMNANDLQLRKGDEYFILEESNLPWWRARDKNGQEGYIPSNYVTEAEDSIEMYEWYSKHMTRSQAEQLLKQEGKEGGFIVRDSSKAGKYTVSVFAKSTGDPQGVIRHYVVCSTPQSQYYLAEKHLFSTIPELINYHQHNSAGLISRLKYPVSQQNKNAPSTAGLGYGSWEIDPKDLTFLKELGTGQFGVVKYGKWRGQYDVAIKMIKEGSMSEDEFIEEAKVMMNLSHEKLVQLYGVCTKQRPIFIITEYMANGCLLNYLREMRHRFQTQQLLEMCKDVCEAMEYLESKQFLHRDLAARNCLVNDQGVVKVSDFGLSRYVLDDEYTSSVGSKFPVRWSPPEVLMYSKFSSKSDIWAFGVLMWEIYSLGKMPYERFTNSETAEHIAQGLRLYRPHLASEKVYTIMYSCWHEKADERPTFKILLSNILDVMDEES

[6] = target: Casein kinase II subunit alpha (Homo sapiens, UniProt P68400); experiment: Selectivity interaction (KinomeScan (DiscoverX)) EUB0001619a CSNK2A1; details: at 1 µM
Chain of Casein kinase II subunit alpha (P68400 whole entry, looked up): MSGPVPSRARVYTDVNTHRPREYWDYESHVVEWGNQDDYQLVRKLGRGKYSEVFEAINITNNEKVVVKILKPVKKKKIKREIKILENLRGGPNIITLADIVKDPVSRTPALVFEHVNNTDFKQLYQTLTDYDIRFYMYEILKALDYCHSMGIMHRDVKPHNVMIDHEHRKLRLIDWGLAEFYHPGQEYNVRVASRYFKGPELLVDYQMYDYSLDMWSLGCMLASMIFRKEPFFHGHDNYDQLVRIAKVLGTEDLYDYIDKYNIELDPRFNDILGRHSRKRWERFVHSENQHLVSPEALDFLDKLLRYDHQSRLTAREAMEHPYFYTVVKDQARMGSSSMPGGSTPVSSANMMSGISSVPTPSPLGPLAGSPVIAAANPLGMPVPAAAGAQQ

[7] = target: T2, Phosphatidylinositol 5-phosphate 4-kinase type-2 beta (Homo sapiens) (UniProt P78356); experiment: Selectivity interaction (KinomeScan (DiscoverX)) EUB0001619a PIP4K2B; details: at 1 µM
T2 sequence (whole entry): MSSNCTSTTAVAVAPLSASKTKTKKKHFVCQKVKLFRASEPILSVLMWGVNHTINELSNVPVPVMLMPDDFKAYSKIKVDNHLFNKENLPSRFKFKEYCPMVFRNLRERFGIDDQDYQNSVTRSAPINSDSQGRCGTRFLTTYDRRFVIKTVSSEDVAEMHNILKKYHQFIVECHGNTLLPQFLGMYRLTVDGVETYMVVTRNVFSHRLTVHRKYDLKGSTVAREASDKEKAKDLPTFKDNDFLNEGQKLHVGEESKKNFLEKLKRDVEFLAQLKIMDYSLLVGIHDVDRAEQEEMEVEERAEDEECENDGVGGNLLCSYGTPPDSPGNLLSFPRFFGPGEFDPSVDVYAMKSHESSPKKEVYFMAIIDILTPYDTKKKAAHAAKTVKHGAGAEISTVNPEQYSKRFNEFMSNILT

[8] = target: T3, Serine/threonine-protein kinase Nek9 (Homo sapiens) (UniProt Q8TD19); experiment: Selectivity interaction (ActivX KiNativ screen (ex vivo kinase selectivity in human PBMCs)) EUB0001619a NEK9; format: cell-based; details: PBMC, at 1 µM
T3 sequence (whole entry): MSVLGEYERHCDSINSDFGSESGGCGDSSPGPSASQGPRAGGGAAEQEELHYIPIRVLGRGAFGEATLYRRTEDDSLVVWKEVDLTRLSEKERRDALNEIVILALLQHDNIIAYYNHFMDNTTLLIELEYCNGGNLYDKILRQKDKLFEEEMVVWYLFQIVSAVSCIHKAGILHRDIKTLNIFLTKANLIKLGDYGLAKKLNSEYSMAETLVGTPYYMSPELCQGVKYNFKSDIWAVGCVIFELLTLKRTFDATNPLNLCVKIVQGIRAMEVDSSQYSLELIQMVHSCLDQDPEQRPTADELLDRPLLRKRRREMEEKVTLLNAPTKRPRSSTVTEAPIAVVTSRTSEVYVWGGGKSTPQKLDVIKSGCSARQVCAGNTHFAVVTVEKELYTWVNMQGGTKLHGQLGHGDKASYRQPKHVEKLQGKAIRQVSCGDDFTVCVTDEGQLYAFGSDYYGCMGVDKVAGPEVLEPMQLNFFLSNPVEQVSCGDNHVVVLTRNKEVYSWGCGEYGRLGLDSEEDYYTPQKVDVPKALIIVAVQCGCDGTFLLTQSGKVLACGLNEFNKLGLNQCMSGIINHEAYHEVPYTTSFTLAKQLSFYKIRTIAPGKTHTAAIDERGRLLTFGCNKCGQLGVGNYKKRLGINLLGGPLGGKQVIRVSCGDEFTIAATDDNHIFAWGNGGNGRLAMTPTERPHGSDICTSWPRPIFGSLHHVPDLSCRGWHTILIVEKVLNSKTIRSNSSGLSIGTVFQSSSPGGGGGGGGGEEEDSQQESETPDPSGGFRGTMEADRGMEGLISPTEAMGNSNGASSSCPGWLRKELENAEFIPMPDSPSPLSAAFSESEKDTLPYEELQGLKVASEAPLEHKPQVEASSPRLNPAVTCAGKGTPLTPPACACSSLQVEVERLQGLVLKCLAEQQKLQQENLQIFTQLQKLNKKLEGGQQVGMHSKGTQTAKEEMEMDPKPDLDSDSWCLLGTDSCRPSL

Chain of Serine/threonine-protein kinase 35 (Homo sapiens) (Q8TDR2 whole entry): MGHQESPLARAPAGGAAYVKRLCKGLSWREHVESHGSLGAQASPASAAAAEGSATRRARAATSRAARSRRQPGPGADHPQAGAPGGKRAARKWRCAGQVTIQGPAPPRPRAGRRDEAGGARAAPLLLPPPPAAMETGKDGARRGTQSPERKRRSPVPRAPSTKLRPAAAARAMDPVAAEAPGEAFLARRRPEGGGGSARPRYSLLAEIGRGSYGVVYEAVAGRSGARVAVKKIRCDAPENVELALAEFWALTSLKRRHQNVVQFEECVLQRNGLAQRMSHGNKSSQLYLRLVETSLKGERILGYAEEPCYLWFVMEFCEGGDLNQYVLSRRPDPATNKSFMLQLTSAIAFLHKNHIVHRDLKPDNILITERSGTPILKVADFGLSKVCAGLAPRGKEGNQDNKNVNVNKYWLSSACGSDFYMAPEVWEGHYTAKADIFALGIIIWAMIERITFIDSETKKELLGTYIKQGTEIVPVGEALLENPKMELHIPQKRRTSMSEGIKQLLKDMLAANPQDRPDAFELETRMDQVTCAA

Compound: COc1cc(Nc2nc(C)cc(-c3cnn4nc(OC)ccc34)n2)cc(C(F)(F)F)c1
% of control [1]: 100%

Compound: CCn1c(-c2nc3cc(C(=O)N4CCCC(N)C4)ccc3n2C)cc2ccccc21 (centres undefined)
XC50 [2]: > 100 µM

Compound: N#Cc1cccc(-c2c[nH]c3ncnc(N4CCOCC4)c23)c1
% of control [6]: 75% | % of control [7]: 23% | % of inhibition [8]: -31%

More lines, now with the values ahead:

% of control ([3]; at 1 µM): 68% | % of control ([3]; at 5 µM): 31%
Compound: C=CC(=O)Nc1cccc(C(=O)Nc2ccc(Nc3cc(-c4[nH]c(SC)nc4C)ccn3)cc2)c1

% of inhibition [4]: 26.3%
Compound: CC[C@@H](Nc1c(C#N)c(-c2ccc(-c3cccc(C)c3F)cc2)nc2cnccc12)C(=O)O [BAY-091]

% of inhibition [5]: 6%
Compound: Cc1ccc(-c2ccc3c(ccc4sc5c(c43)NC[C@@H](C)NC5=O)n2)cn1
